Reference: patent US20260109707A1, “HETEROBIFUNCTIONAL COMPOUNDS AND METHODS OF TREATING DISEASE” (Halda Therapeutics OpCo. Inc., priority 2022, published 2026)
Read-outs that look alike come from different tables or passages of the source.

Assays:
[1] = test system: T47D cells; assay: Cellular growth inhibition assay for T47D cells (CellTiter-Glo, 72 hours); type: cell-based, human; conditions: 72 hours treatment
In short: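 Cells are plated at 3000/well and allowed 24 h before treatment. Test compound in medium containing 0.5% DMSO is then added, with DMSO-only wells as negative control, and plates are incubated 72 h at 37 °C. ATP luminescence (CellTiter-Glo 2.0) is then fitted to four parameters to derive GI50.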

[2] = test system: T-Rex 293 cell line SC3 cells having increased expression of androgen receptor protein due to exposure to doxycycline; assay: Cellular growth inhibition assay, T-Rex 293 SC3 cells with doxycycline (CellTiter-Glo, 72 hours); type: cell-based; conditions: 72 h, T-Rex 293 SC3 cells with increased androgen receptor expression due to doxycycline (10 ng/mL)
In short: (§1)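 Growth inhibition is measured in an inducible AR-expressing T-Rex 293 clone, SC3, cultured with or without 10 ng/mL doxycycline in hormone-depleted medium. Test compounds are applied for 72 hours. GI50 values derive from CellTiter-Glo 2.0 signal fitted by four-parameter regression.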

[3] = test system: VCaP cells; assay: Cellular growth inhibition assay for VCaP cells (CellTiter-Glo, 72 hours); type: cell-based, human
In short: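 Luminescent viability signal after 72 h of compound exposure gave GI50 values by four-parameter nonlinear regression. Compounds were added in 0.5% DMSO to cells plated 24 h earlier at 5000/well in DMEM containing 10% FBS.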

[4] = test system: T-Rex 293 cell line SC3 cells lacking increased expression of androgen receptor protein; assay: Cellular growth inhibition assay, T-Rex 293 SC3 cells without doxycycline (CellTiter-Glo, 72 hours); type: cell-based; conditions: T-Rex 293 cell line SC3 cells not exposed to doxycycline (lacking increased androgen receptor expression)
In short: as §1

Cc1sc2c(c1C)C(c1ccc(O[C@H]3C[C@@]4(CCCN(c5ccc(C(=O)N[C@H]6CC[C@H](Oc7ccc(C#N)c(Cl)c7)CC6)nn5)C4)C3)cc1)=N[C@@H](Cc1ncco1)c1nnc(C)n1-2 [I-92]
GI50 ([1]; Homo sapiens, T47D, 72 h): 0.5 to 1.5 µM | GI50 [2]: < 0.5 µM | GI50 ([3]; Homo sapiens, VCaP, 72 h): < 0.5 µM | GI50 ([4]; 72 h): < 0.5 µM

Cc1sc2c(c1C)C(c1ccc(O[C@H]3C[C@]4(CCCN(c5ccc(C(=O)N[C@H]6CC[C@H](Oc7ccc(C#N)c(Cl)c7)CC6)nn5)C4)C3)cc1)=N[C@@H](Cc1ncco1)c1nnc(C)n1-2 [I-93]
GI50 ([1]; Homo sapiens, T47D, 72 h): 0.5 to 1.5 µM | GI50 [2]: < 0.5 µM | GI50 ([3]; Homo sapiens, VCaP, 72 h): < 0.5 µM | GI50 ([4]; 72 h): < 0.5 µM

Cc1sc2c(c1C)C(c1ccc(O[C@H]3CC[C@@]4(CCCN(c5ccc(C(=O)N[C@H]6CC[C@H](Oc7ccc(C#N)c(Cl)c7)CC6)nn5)C4)C3)cc1)=N[C@@H](Cc1ncco1)c1nnc(C)n1-2 [I-96]
GI50 ([1]; Homo sapiens, T47D, 72 h): < 0.5 µM | GI50 [2]: < 0.5 µM | GI50 ([3]; Homo sapiens, VCaP, 72 h): < 0.5 µM | GI50 ([4]; 72 h): < 0.5 µM

Cc1sc2c(c1C)C(c1ccc(O[C@H]3CC[C@]4(CCCN(c5ccc(C(=O)N[C@H]6CC[C@H](Oc7ccc(C#N)c(Cl)c7)CC6)nn5)C4)C3)cc1)=N[C@@H](Cc1ncco1)c1nnc(C)n1-2 [I-97]
GI50 ([1]; Homo sapiens, T47D, 72 h): < 0.5 µM | GI50 [2]: < 0.5 µM | GI50 ([3]; Homo sapiens, VCaP, 72 h): < 0.5 µM | GI50 ([4]; 72 h): < 0.5 µM

Cc1sc2c(c1C)C(c1ccc(O[C@@H]3CC[C@]4(CCCN(c5ccc(C(=O)N[C@H]6CC[C@H](Oc7ccc(C#N)c(Cl)c7)CC6)nn5)C4)C3)cc1)=N[C@@H](Cc1ncco1)c1nnc(C)n1-2 [I-98]
GI50 ([1]; Homo sapiens, T47D, 72 h): < 0.5 µM | GI50 [2]: < 0.5 µM | GI50 ([3]; Homo sapiens, VCaP, 72 h): < 0.5 µM | GI50 ([4]; 72 h): < 0.5 µM

Cc1sc2c(c1C)C(c1ccc(OC3CN(C4CCN(c5ccc(C(=O)N[C@H]6CC[C@H](Oc7ccc(C#N)c(Cl)c7)CC6)nn5)C4)C3)cc1)=N[C@@H](Cc1ncco1)c1nnc(C)n1-2 (stereo partly shown) [I-101]
GI50 ([1]; Homo sapiens, T47D, 72 h): < 0.5 µM | GI50 [2]: < 0.5 µM | GI50 ([3]; Homo sapiens, VCaP, 72 h): < 0.5 µM | GI50 ([4]; 72 h): < 0.5 µM

Cc1sc2c(c1C)C(c1ccc(OC[C@H]3CC[C@@]4(CCCN(c5ccc(C(=O)N[C@H]6CC[C@H](Oc7ccc(C#N)c(Cl)c7)CC6)nn5)C4)C3)cc1)=N[C@@H](Cc1ncco1)c1nnc(C)n1-2 [I-102]
GI50 ([1]; Homo sapiens, T47D, 72 h): < 0.5 µM | GI50 [2]: < 0.5 µM | GI50 ([3]; Homo sapiens, VCaP, 72 h): < 0.5 µM | GI50 ([4]; 72 h): < 0.5 µM

Cc1sc2c(c1C)C(c1ccc(OC[C@@H]3CC[C@@]4(CCCN(c5ccc(C(=O)N[C@H]6CC[C@H](Oc7ccc(C#N)c(Cl)c7)CC6)nn5)C4)C3)cc1)=N[C@@H](Cc1ncco1)c1nnc(C)n1-2 [I-103]
GI50 ([1]; Homo sapiens, T47D, 72 h): < 0.5 µM | GI50 [2]: < 0.5 µM | GI50 ([3]; Homo sapiens, VCaP, 72 h): < 0.5 µM | GI50 ([4]; 72 h): < 0.5 µM

Cc1sc2c(c1C)C(c1ccc(OC[C@H]3C[C@]4(CCCN(c5ccc(C(=O)N[C@H]6CC[C@H](Oc7ccc(C#N)c(Cl)c7)CC6)nn5)C4)C3)cc1)=N[C@@H](Cc1ncco1)c1nnc(C)n1-2 [I-104]
GI50 [1]: < 0.5 µM | GI50 [2]: < 0.5 µM | GI50 [3]: < 0.5 µM | GI50 [4]: < 0.5 µM

Cc1sc2c(c1C)C(c1ccc(OC[C@H]3C[C@@]4(CCCN(c5ccc(C(=O)N[C@H]6CC[C@H](Oc7ccc(C#N)c(Cl)c7)CC6)nn5)C4)C3)cc1)=N[C@@H](Cc1ncco1)c1nnc(C)n1-2 [I-105]
GI50 ([1]; Homo sapiens, T47D, 72 h): < 0.5 µM | GI50 [2]: < 0.5 µM | GI50 ([3]; Homo sapiens, VCaP, 72 h): < 0.5 µM | GI50 ([4]; 72 h): < 0.5 µM

CNc1ccc2c(n1)C(c1ccc(OC3CC4(CCN(c5ccc(C(=O)N[C@H]6CC[C@H](Oc7ccc(C#N)c(Cl)c7)CC6)nn5)CC4)C3)cc1)=NCc1onc(C)c1-2 [I-106]
GI50 ([1]; Homo sapiens, T47D, 72 h): > 3 µM | GI50 [2]: < 0.5 µM | GI50 ([3]; Homo sapiens, VCaP, 72 h): < 0.5 µM | GI50 ([4]; 72 h): > 3 µM

CNc1ccc2c(n1)C(c1ccc(OC3CC4(CCCN(c5ccc(C(=O)N[C@H]6CC[C@H](Oc7ccc(C#N)c(Cl)c7)CC6)nn5)C4)C3)cc1)=NCc1onc(C)c1-2 (stereo partly shown) [I-107]
GI50 ([1]; Homo sapiens, T47D, 72 h): > 3 µM | GI50 [2]: < 0.5 µM | GI50 ([3]; Homo sapiens, VCaP, 72 h): > 3 µM | GI50 ([4]; 72 h): > 3 µM

Cc1sc2c(c1C)C(c1ccc(OC3CC4(CCN(c5ccc(C(=O)N[C@H]6CC[C@H](Oc7ccc(C#N)c(Cl)c7)CC6)cc5)CC4)C3)cc1)=N[C@@H](Cc1ncco1)c1nnc(C)n1-2 [I-108]
GI50 ([1]; Homo sapiens, T47D, 72 h): < 0.5 µM | GI50 [2]: < 0.5 µM | GI50 ([3]; Homo sapiens, VCaP, 72 h): < 0.5 µM | GI50 ([4]; 72 h): < 0.5 µM

Cc1sc2c(c1C)C(c1ccc(CCOC3CCN(c4ccc(C(=O)N[C@H]5CC[C@H](Oc6ccc(C#N)c(Cl)c6)CC5)nn4)CC3)cc1)=NC(Cc1ncco1)c1nnc(C)n1-2 (stereo partly shown) [I-110]
GI50 ([1]; Homo sapiens, T47D, 72 h): < 0.5 µM | GI50 [2]: < 0.5 µM | GI50 ([3]; Homo sapiens, VCaP, 72 h): < 0.5 µM | GI50 ([4]; 72 h): > 3 µM

Cc1sc2c(c1C)C(c1ccc(CC3CC4(CCN(c5ccc(C(=O)N[C@H]6CC[C@H](Oc7ccc(C#N)c(Cl)c7)CC6)nn5)CC4)C3)cc1)=N[C@H](Cc1ncco1)c1nnc(C)n1-2 [I-111]
GI50 ([1]; Homo sapiens, T47D, 72 h): > 3 µM | GI50 [2]: < 0.5 µM | GI50 ([3]; Homo sapiens, VCaP, 72 h): < 0.5 µM | GI50 ([4]; 72 h): > 3 µM

Cc1sc2c(c1C)C(c1ccc(CC3CC4(CCN(c5ccc(C(=O)N[C@H]6CC[C@H](Oc7ccc(C#N)c(Cl)c7)CC6)nn5)CC4)C3)cc1)=N[C@@H](Cc1ncco1)c1nnc(C)n1-2 [I-112]
GI50 ([1]; Homo sapiens, T47D, 72 h): < 0.5 µM | GI50 [2]: < 0.5 µM | GI50 ([3]; Homo sapiens, VCaP, 72 h): < 0.5 µM | GI50 ([4]; 72 h): < 0.5 µM

Cc1sc2c(c1C)C(c1ccc(CC3CN(CC4CCN(c5ccc(C(=O)N[C@H]6CC[C@H](Oc7ccc(C#N)c(Cl)c7)CC6)nn5)CC4)C3)cc1)=N[C@@H](Cc1ncco1)c1nnc(C)n1-2 [I-113]
GI50 ([1]; Homo sapiens, T47D, 72 h): < 0.5 µM | GI50 [2]: < 0.5 µM | GI50 ([3]; Homo sapiens, VCaP, 72 h): < 0.5 µM | GI50 ([4]; 72 h): 0.5 to 1.5 µM

Cc1sc2c(c1C)C(c1ccc(CC3CN(CC4CCN(c5ccc(C(=O)N[C@H]6CC[C@H](Oc7ccc(C#N)c(Cl)c7)CC6)nn5)CC4)C3)cc1)=N[C@H](Cc1ncco1)c1nnc(C)n1-2 [I-114]
GI50 ([1]; Homo sapiens, T47D, 72 h): 0.5 to 1.5 µM | GI50 [2]: < 0.5 µM | GI50 ([3]; Homo sapiens, VCaP, 72 h): 0.5 to 1.5 µM | GI50 ([4]; 72 h): 1.5 to 3 µM

Cc1sc2c(c1C)C(c1ccc(CC3CN([C@@H]4CCN(c5ccc(C(=O)N[C@H]6CC[C@H](Oc7ccc(C#N)c(Cl)c7)CC6)nn5)C4)C3)cc1)=N[C@@H](Cc1ncco1)c1nnc(C)n1-2 [I-115]
GI50 ([1]; Homo sapiens, T47D, 72 h): < 0.5 µM | GI50 [2]: < 0.5 µM | GI50 ([3]; Homo sapiens, VCaP, 72 h): < 0.5 µM | GI50 ([4]; 72 h): < 0.5 µM

Cc1sc2c(c1C)C(c1ccc(CC3CN([C@H]4CCN(c5ccc(C(=O)N[C@H]6CC[C@H](Oc7ccc(C#N)c(Cl)c7)CC6)nn5)C4)C3)cc1)=N[C@@H](Cc1ncco1)c1nnc(C)n1-2 [I-116]
GI50 ([1]; Homo sapiens, T47D, 72 h): < 0.5 µM | GI50 [2]: < 0.5 µM | GI50 ([3]; Homo sapiens, VCaP, 72 h): < 0.5 µM | GI50 ([4]; 72 h): < 0.5 µM

Cc1sc2c(c1C)C(c1ccc(C[C@H]3C[C@@]4(CCCN(c5ccc(C(=O)N[C@H]6CC[C@H](Oc7ccc(C#N)c(Cl)c7)CC6)nn5)C4)C3)cc1)=N[C@@H](Cc1ncco1)c1nnc(C)n1-2 [I-118]
GI50 ([1]; Homo sapiens, T47D, 72 h): 1.5 to 3 µM | GI50 [2]: > 3 µM | GI50 ([3]; Homo sapiens, VCaP, 72 h): 1.5 to 3 µM | GI50 ([4]; 72 h): > 3 µM

Cc1sc2c(c1C)C(c1ccc(C[C@H]3C[C@]4(CCCN(c5ccc(C(=O)N[C@H]6CC[C@H](Oc7ccc(C#N)c(Cl)c7)CC6)nn5)C4)C3)cc1)=N[C@@H](Cc1ncco1)c1nnc(C)n1-2 [I-119]
GI50 ([1]; Homo sapiens, T47D, 72 h): < 0.5 µM | GI50 [2]: < 0.5 µM | GI50 ([3]; Homo sapiens, VCaP, 72 h): < 0.5 µM | GI50 ([4]; 72 h): < 0.5 µM

Cc1sc2c(c1C)C(c1ccc(C[C@H]3C[C@@H](C4CCCN(c5ccc(C(=O)N[C@H]6CC[C@H](Oc7ccc(C#N)c(Cl)c7)CC6)nn5)C4)C3)cc1)=N[C@@H](Cc1ncco1)c1nnc(C)n1-2 (stereo partly shown) [I-120]
GI50 ([1]; Homo sapiens, T47D, 72 h): < 0.5 µM | GI50 [2]: < 0.5 µM | GI50 ([3]; Homo sapiens, VCaP, 72 h): > 3 µM | GI50 ([4]; 72 h): > 3 µM

Cc1sc2c(c1C)C(c1ccc(C[C@H]3C[C@H](C4CCCN(c5ccc(C(=O)N[C@H]6CC[C@H](Oc7ccc(C#N)c(Cl)c7)CC6)nn5)C4)C3)cc1)=N[C@@H](Cc1ncco1)c1nnc(C)n1-2 (stereo partly shown) [I-121]
GI50 ([1]; Homo sapiens, T47D, 72 h): 1.5 to 3 µM | GI50 [2]: 1.5 to 3 µM | GI50 ([3]; Homo sapiens, VCaP, 72 h): > 3 µM | GI50 ([4]; 72 h): > 3 µM

Cc1sc2c(c1C)C(c1ccc(CC3CC(C4CCCN(c5ccc(C(=O)N[C@H]6CC[C@H](Oc7ccc(C#N)c(Cl)c7)CC6)nn5)C4)C3)cc1)=N[C@@H](Cc1ncco1)c1nnc(C)n1-2 (stereo partly shown) [I-122]
GI50 ([1]; Homo sapiens, T47D, 72 h): < 0.5 µM | GI50 [2]: < 0.5 µM | GI50 ([3]; Homo sapiens, VCaP, 72 h): < 0.5 µM | GI50 ([4]; 72 h): < 0.5 µM
